Experimental data reported in patent US10233201B2, “Class of HDAC inhibitors expands the renal progenitor cells population and improves the rate of recovery from acute kidney injury” (University of Pittsburgh—Of the Commonwealth System of …, priority 2012, dated 2019).

Legend:
[1] = test system: renal progenitor cells (lhx1a expression); assay: In situ hybridization for lhx1a expression in 10-somite embryos (renal progenitor cell expansion); format: in vivo; conditions: for lhx1a expansion class, 800 nM: 800 nM from 2 hpf; on lhx1a expansion class, 800 nM: key: effective (+); partially effective (+/−); ineffective (−); Analogs that killed all embryos at a given concentration before reaching 10 somites are listed as XX
Method in brief: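 Zebrafish embryos treated with compound, then colorimetric whole-mount in situ hybridization for lhx1a mRNA at 10-somite stage (hybridization 65 °C). Percent embryos with expanded kidney field counted manually; EC50 read as the 50% point of the plotted curve.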

renal progenitor cells = assay: Tg(lhx1a:EGFP) reporter: renal progenitor cell counting; format: in vivo, zebrafish
Protocol: Tg(lhx1a:EGFP)^pt303 embryos were treated with 3 μM PTBA and then fixed in 4% paraformaldehyde in PBS for 8 hours at 4° C. Embryos were washed in PBS containing 0.1% TWEEN 20 (PBT) and incubated in 1 μg/ml DAPI in PBT for 30 minutes at room temperature. Embryos were flat-mounted on glass slides with Cytoseal 60 and imaged with either a Leica M205 FA epifluorescent microscope or an Olympus FluoView 1000 confocal microscope. Confocal projections contained stacks of six 3 μm images. A predefined box was positioned at the most posterior region of the notochord and included the most lateral GFP-positive cell in a kidney field. The cells that were positive for both GFP and DAPI within this box were counted manually with the aid of ImageJ. Variances of the control and PTBA-treated groups were compared by F test and found to be unequal. Therefore, a two-tailed t test with unequal variance was used to determine significance (α=0.05).
For all second-generation compounds, the cad17:EGFP transgene is used as the primary readout to assay for expansion of kidney field (FIG. 35). PTBA analogues that expand cad17:EGFP expression are subjected to a secondary screen. […] Such compounds are assessed in target efficacy and toxicity assays.

[2] = test system: Acetylated Histone H3 K9 (Ac-H3 K9); assay: Renal histone H3 K9 acetylation after single injection in CD1 mice; format: in vivo, mouse
Protocol: PTBA analogues are soluble in 1% DMSO/water, are administered subcutaneously as a single injection in adult CD1 mice, and kidneys harvested at 12, 24 and 48 hours to evaluate histone acetylation (which should increase with HDACi). PTBA analogs are used at a dose range determined from comparative dose efficacy with m4PTB in the secondary zebrafish screen. Acetylated Histone H3 K9 (Ac-H3 K9) is evaluated, as this is most easily detected by Western blot in nuclear extracts from mouse renal tissues. Preliminary studies compared the effect of Trichostatin A (an established, but toxic HDACi) at an effective dose in the zebrafish screen ([…]) with an equivalent dose of m4PTB (0.8 mM), and then X2 and X4 dose increments (molar concentration in vivo based on estimate uniform distribution relative to body mass of water). 3.4 mg/kg (4×) m4PTB induced maximal expression of Ac-H3 K9 after 24 hours (FIG. 36). This effect was increased compared with TSA or lower doses of m4PTB, so we elected to use this dose of m4PTB (3.4 mg/kg) for AKI studies in mice. […]
We evaluated efficacy and effective dosage of a second-generation PTBA analogue, m4PTB, by determining the kinetics of renal Histone H3 K9 acetylation (H3K9Ac) following a single SC injection. […]

| Compound | lhx1a expansion class, 800 nM [1] | effective dose for the renal progenitor assay ([1]; zebrafish, in vivo) [nM] | lowest dose at which expansion of the renal progenitor cell population starts to be seen (renal progenitor cells; lhx1a:EGFP transgene, data not shown) [nM] | persistence of H3K9Ac induction ([2]; 3.4 mg/kg single SC injection) [h] | dose inducing maximal Ac-H3 K9 expression in kidney ([2]; single SC injection, after 24 hours) [mg/kg] | embryos with expanded lhx1a expression ([1]; 0.5% DMSO at 5 hpf, 3 μM PTBA at 8 hpf) [%] | responders at 0.8 µM ([1]; Danio rerio, 800 nM, read-out: embryos with expanded lhx1a expression (% expansion)) [%] | embryos with expanded lhx1a expression ([1]; injected with 200 pg DN-RARα mRNA, then 3 μM PTBA at 5 hpf) [%] | increase in the number of renal progenitor cells (renal progenitor cells; 3 μM, 10-somite Tg(lhx1a:EGFP)pt303 embryos) [fold] |
| --- | --- | --- | --- | --- | --- | --- | --- | --- | --- |
| COC(=O)CCCSc1ccccc1 [UPHD-00025, methyl 4-(phenylsulfanyl) butanoate] | +/− | ~800 | 600 | 24 | 3.4 |  |  |  |  |
| O=C(O)CCCSc1ccccc1 [PTBA, 4-(phenylthio)butanoic acid] | +/− |  |  |  |  | 97 | < 25 | 19 | 2.4 |
